# Experimental data as given in PubChem BioAssay (NCI).
# Several values for one entry are separate records, joined by “and”; a condition that tells them apart may be missing. Equal values may be shown once.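 Five concentrations, 48 hours, 96-well plates. Abbreviation: GI50, concentration required for 50% inhibition of growth. The concentration for full growth arrest is given as TGI.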
# Columns and labels:
# Test in all cases: inhibition of tumour cell growth, NCI panel, 48 h
# [1] = test system: DMS 114 small cell lung
# [2] = test system: RXF-631 renal
# [3] = test system: DLD-1 colon
# [4] = test system: M19-MEL melanoma
# [5] = test system: BT-549 breast
# [6] = test system: DU-145 prostate
# [7] = test system: HOP-18 NSCLC
# [8] = test system: MDA-N
SMILES,TGI [1],TGI [2],TGI [3],TGI [4],GI50 [5],TGI [5],GI50 [6],TGI [6],TGI [7],TGI [8]
O=C(N/N=C/c1cc(Br)ccc1O)N/N=C/c1cc(Br)ccc1O,> 100 µM,> 100 µM,> 100 µM,> 100 µM,,,,,,
COc1ccc(-c2nc3ccccn3c2/C=C/C(=O)c2cc(OC)c(OC)c(OC)c2)cc1OC,,,,,0.899 µM,3.2 µM,2.63 µM,8.14 µM,,
Cc1ccc(NC(=O)c2cccc(C(C)(C)C#N)c2)cc1Nc1ccc2ncn(C)c(=O)c2c1,,,,,5.17 µM,> 100 µM,5.66 µM,> 100 µM,,
CC1=[N+]([O-])c2ccccc2C(=O)C1=O,> 100 µM,,> 100 µM,> 100 µM,,,,,> 100 µM,
CC(C)c1ccc(-c2cc(-c3cn[nH]c3-c3ccccn3)ccn2)cc1,,,,,10.6 µM,> 25 µM,16 µM,> 25 µM,,
CC/C=C\C[C@H](O)C/C=C1/C(=O)C=C[C@@H]1C/C=C\CCCC(=O)OC,,,,,2.15 µM,6.07 µM,4.07 µM,15.2 µM,,
CN1CCN(CCCNc2nc3ccc(Oc4ccc(NC(=O)Nc5cc(C(F)(F)F)ccc5F)cc4)cc3[nH]2)CC1,,,,,4.23 µM,8.04 µM,5.17 µM,12.5 µM,,
O=C1C2C3C=C4c5ccccc5N(c5ccccc5)C4(C2C(=O)N1c1ccc([N+](=O)[O-])cc1)[C@H]1C(=O)N(c2ccc([N+](=O)[O-])cc2)C(=O)[C@@H]31 (stereo not given in full),> 100 µM,,> 100 µM,> 100 µM,,,,,> 100 µM,
O=C1/C(=C(/c2ccccc2)N2CCOCC2)Cc2ccccc21,,,,,1.26 µM,3.2 µM,0.948 µM,2.29 µM,,
COc1cc2c3c(n(CCCN)c(=O)c2cc1OC)-c1ccc(C#N)cc1C3=O,,,,,,,12.3 µM,25.5 µM,,
N#Cc1cc(-c2cc3ccccc3o2)oc1N,,,,,3.58 µM,14 µM,4.4 µM,28.9 µM,,
c1ccc(C2N3CCCCC3[C@@H]3c4[nH]c5ccccc5c4CCN23)nc1 (stereo not given in full),96.3 µM,> 100 µM,> 100 µM,> 100 µM,,,,,> 100 µM,
CC1(C)C(=O)/C(=C\c2cccnc2)C[C@]2(C)[C@H]3CC[C@@H]4[C@H]5[C@H](C(=O)/C=C/c6cccnc6)CC[C@]5(C(=O)O)CC[C@@]4(C)[C@]3(C)CC[C@@H]12,,,,,1.95 µM,4.41 µM,2.1 µM,5 µM,,
COC(=O)Nc1nc2ccc(C3(c4ccc(F)cc4)OCCO3)cc2[nH]1,,,,,2.77 µM,> 100 µM,0.363 µM,> 100 µM,,
[N-]=[N+]=C1C(=O)NN=C1c1ccccc1,> 100 µM,> 100 µM,> 100 µM,> 100 µM,,,,,,
CCOC(=O)C1SC(=Nc2ccc(C)c(C)c2)N=C1C (stereo not given),> 100 µM,,> 100 µM,> 100 µM,,,,,> 100 µM,
Cc1cc(N(CCC#N)CCC#N)ccc1/C=C(\NC(=O)/C=C/c1ccccc1)C(N)=O,> 100 µM,,> 100 µM,> 100 µM,,,,,,
CC1=CC(=O)C=CC1=O,,,,,16.2 µM and 14.9 µM,40 µM and 28.3 µM,17.3 µM and 17.8 µM,31 µM and 32.4 µM,,
C=C(C)[C@@H]1CC[C@]2(CO)CC[C@]3(C)[C@H](CC[C@@H]4[C@@]5(C)C=C(C#N)C(=O)C(C)(C)[C@@H]5CC[C@]43C)[C@@H]12,,,,,2.13 µM,6.18 µM,1.97 µM,5.75 µM,,

SMILES,TGI [1],TGI [2],TGI [3],TGI [4],GI50 [5],TGI [5],GI50 [6],TGI [6],TGI [7],TGI [8]
CCc1nc(N)nc(N)c1-c1ccc(NC)c([N+](=O)[O-])c1,,,,,,> 100 µM,,> 100 µM,,> 100 µM
O=C1c2ccccc2C(=O)C1(O)c1c[nH]c2ccccc12,> 100 µM,> 100 µM,> 100 µM,> 100 µM,,,,,,
CCNCCNc1cc(-c2ccc(C(F)(F)F)cc2)c(C#N)c2nc3ccccc3n12,,,,,1.59 µM,3.16 µM,1.44 µM,2.78 µM,,
Cc1cc2ncnn2cc1Nc1ncc2c(n1)n(C1CCOCC1)c(=O)n2C,,,,,2.83 µM,32.2 µM,6.92 µM,> 100 µM,,
C/C(=N\Nc1ccc(Cl)cn1)c1ccc2ccccc2n1,,,,,2.62 µM,> 100 µM,4.03 µM,> 100 µM,,
C=C(C)CCN[Si](c1ccccc1)(c1ccccc1)C(C)(C)C,51.3 µM,41.5 µM,,38 µM,,,,,33.4 µM,
CN(C)CCNc1ccc(CO)c2oc3ccc(O)cc3c(=O)c12,,,,,,28.4 µM,,53.9 µM,,25.7 µM
COc1ccc(C2=C(Cl)c3cc(OC)c(OC)cc3C2Cl)cc1 (stereo not given),31.8 µM,,,35.8 µM,,15.6 µM,,45.4 µM,53.5 µM,22.8 µM
COC(=O)C(CC(=O)Nc1ccc(C)cc1)C(=O)C(=O)Nc1c(C(C)C)cccc1C(C)C (stereo not given),> 100 µM,> 100 µM,> 100 µM,> 100 µM,,,,,,
COc1ccc(C(=O)c2cc(OC)c(OC)c(OC)c2)cc1/C=C/C(=O)c1ccc(F)cc1,,,,,3.27 µM,13.1 µM,7.72 µM,21 µM,,
COc1cc2c(cc1OCCCCC(=O)Nc1cc3c4ccccc4ccc3c3ccccc13)N=C[C@@H]1CCCN1C2=O,,,,,,,2.84 µM,14.1 µM,,
OCC1OC(n2cnc3c2NC=NC[C@H]3O)C(Cl)C1O (stereo not given in full),,,,,,> 100 µM,,> 100 µM,,> 100 µM
Nc1nc(Nc2cccnc2)sc1C(=O)c1ccccc1F,,,,,1.64 µM,6.54 µM,3.38 µM,> 100 µM,,
COc1ccc(-c2[nH]c3ccc(OC)cc3c2/C=C(\C#N)S(=O)(=O)c2ccccc2)cc1,,,,,4.51 µM,> 100 µM,0.785 µM,> 31.4 µM,,
COc1c(C(=O)/C=C/c2ccccc2)c(O)cc2occc12,,,,,7.72 µM,27.8 µM,3.81 µM,13.2 µM,,
CC12OC(C(=O)C13CC3)C1C(=O)c3ccc4c(ccc5ccccc54)c3C(=O)C12 (stereo not given),,,,,29.6 µM,55.9 µM,,,,
NS(=O)(=O)c1ccc(-c2ccc3c(NC(=O)C4CC4)n[nH]c3c2)cc1,,,,,> 25 µM,> 25 µM,> 25 µM,> 25 µM,,
Clc1cc(Cl)c2ns[s+]c2c1Cl,,,> 100 µM,> 100 µM,,,,,> 100 µM,
